Measured values from US10829520B2, “Beta-hairpin peptidomimetics” (POLYPHOR AG, priority 2015, dated 2020).
Where a SMILES comes first, the peptide text is derived from it. Bridges are numbered along the chain shown (N, C = ends). Roman numbers before positions name the chains, in order. [ ]: non-standard residue; d: D form. NMeW = CN[C@@H](Cc1c[nH]c2ccccc12)C(=O)O; Hyp = O=C(O)[C@@H]1C[C@@H](O)CN1; Tle = CC(C)(C)[C@H](N)C(=O)O; dDab = NCC[C@@H](N)C(=O)O; Nle = CCCC[C@H](N)C(=O)O; Orn = NCCC[C@H](N)C(=O)O; Dab = NCC[C@H](N)C(=O)O; dAze = O=C(O)[C@H]1CCN1; Dap = NC[C@H](N)C(=O)O; Sar = CNCC(=O)O

Key:
Type in all cases: cell-based
[1] = tested on: Acinetobacter baumannii 872842; conditions: 872842
[2] = tested on: Acinetobacter baumannii DSM 30008; conditions: DSM 30008
Procedure, shortened: (§1)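 Using the CLSI reference method, each strain at approx. 10^6 CFU/mL was exposed to serially diluted peptide in MH-II broth with 0.002% P-80. After 18-20 h at 35° C, the lowest concentration showing no visible growth gave the MIC.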

Escherichia coli 926415 = conditions: 926415
[3] = tested on: Escherichia coli ATCC 25922; conditions: ATCC 25922
Procedure, shortened: as §1

[4] = tested on: Klebsiella pneumoniae 968733; conditions: 968733
[5] = tested on: Klebsiella pneumoniae SSI #3010; conditions: SSI #3010
Procedure, shortened: as §1

[6] = tested on: Pseudomonas aeruginosa ATCC 27853; conditions: ATCC 27853
Procedure, shortened: as §1

[7] = tested on: human red blood cells (hRBC); test: Hemolysis of human red blood cells; conditions: red cells of human, 1 h
Procedure, shortened: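 Hemolysis was read as supernatant absorbance at 540 nm and expressed as a percentage of Triton X-100 (2.5%) lysis. Washed human red cells (20% v/v) had been exposed to each peptide at 100 μg/mL for 1 h at 37° C.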

| SMILES | Acinetobacter baumannii 872842 MIC [1] [µg/mL] | Acinetobacter baumannii DSM 30008 MIC [2] [µg/mL] | Escherichia coli 926415 MIC (Escherichia coli 926415) [µg/mL] | Escherichia coli ATCC 25922 MIC [3] [µg/mL] | Klebsiella pneumoniae 968733 MIC [4] [µg/mL] | Klebsiella pneumoniae SSI #3010 MIC [5] [µg/mL] | Pseudomonas aeruginosa ATCC 27853 MIC [6] [µg/mL] | Hemolysis at 100 μg/mL [7]; 100 [%] | Hemolysis at 100 μg/mL ([7]; 100 μg/mL) [%] |
| --- | --- | --- | --- | --- | --- | --- | --- | --- | --- |
| CCCC[C@@H]1NC(=O)[C@@H]2CCCN2C(=O)[C@H]2CCCN2C(=O)[C@H](CO)NC(=O)[C@H](CO)NC(=O)[C@H](C(C)(C)C)NC(=O)[C@H](CCN)NC(=O)[C@H](Cc2c[nH]c3ccccc23)NC(=O)[C@H](CCN)NC(=O)[C@@H](CCN)NC(=O)[C@H](CCC(=O)N[C@@H](CCN)C(=O)N[C@H](C(=O)N[C@@H](CCN)C(=O)N[C@H]2CCNC(=O)[C@H]([C@@H](C)O)NC(=O)[C@H](CCN)NC(=O)[C@H](CCN)NC(=O)[C@H](CC(C)C)NC(=O)[C@@H](CC(C)C)NC(=O)[C@H](CCN)NC2=O)[C@@H](C)O)NC(=O)[C@H](CCN)NC(=O)[C@H](Cc2ccc(O)cc2)NC(=O)[C@H](CN)NC1=O [Ex. 83] (I: cyclo([Nle][Dap]Y[Dab]E[dDab][Dab]W[Dab][Tle]SS[dP]P) / II: [Dab]T[Dab][Dab][Dab][dL]L[Dab][Dab]T; amide I:5-II:N; lactam II:4-II:C) | 1 | 1 | 1 | 2 | 4 | 2 | 1 | 1 | – |
| CC(C)C[C@@H]1NC(=O)[C@@H](CC(C)C)NC(=O)[C@H](CCN)NC(=O)[C@@H](NC(=O)[C@H](CCN)NC(=O)[C@@H](NC(=O)[C@H](CCN)NC(=O)CC[C@@H]2NC(=O)[C@H](CCN)NC(=O)[C@H](Cc3ccc(O)cc3)NC(=O)[C@H]([C@@H](C)O)NC(=O)[C@H](C(C)C)NC(=O)[C@@H]3C[C@@H](O)CN3C(=O)[C@H]3CCN3C(=O)[C@H](CO)NC(=O)[C@H](CO)NC(=O)[C@H](C(C)C)NC(=O)[C@H](CCN)NC(=O)[C@H](Cc3c[nH]c4ccccc34)NC(=O)[C@H](CCN)NC(=O)[C@@H](CCN)NC2=O)[C@@H](C)O)CCNC(=O)[C@H]([C@@H](C)O)NC(=O)[C@H](CCN)NC(=O)[C@H](CCN)NC1=O [Ex. 93] (I: cyclo([Dab]E[dDab][Dab]W[Dab]VSS[dAze][Hyp]VTY) / II: [Dab]T[Dab][Dab][Dab][dL]L[Dab][Dab]T; amide I:2-II:N; lactam II:4-II:C) | 1 | 2 | 2 | 0.5 | 8 | 0.25 | 0.25 | 1 | – |
| CCCC[C@@H]1NC(=O)[C@@H]2CCCN2C(=O)[C@H]2CCCN2C(=O)[C@H](CO)NC(=O)[C@H](C)NC(=O)[C@H](C(C)(C)C)NC(=O)[C@@H](NC(=O)[C@H](Cc2c[nH]c3ccccc23)NC(C)=O)CSSC[C@@H](C(=O)N[C@@H](CCN)C(=O)N[C@H](C(=O)N[C@@H](CCN)C(=O)N[C@H]2CCNC(=O)[C@H]([C@@H](C)O)NC(=O)[C@H](CCN)NC(=O)[C@H](CCN)NC(=O)[C@H](CC(C)C)NC(=O)[C@@H](Cc3ccccc3)NC(=O)[C@H](CCN)NC2=O)[C@@H](C)O)NC(=O)[C@H](Cc2ccc(O)cc2)NC(=O)[C@H](CO)NC1=O [Ex. 12] (Ac-WC[Tle]AS[dP]P[Nle]SYC[Dab]T[Dab][Dab][Dab][dF]L[Dab][Dab]T; disulfide 2-11; lactam 15-C) | 0.125 | 0.0625 | 0.125 | 0.125 | 0.5 | 0.125 | 0.5 | – | <1 |
| CC(C)C[C@@H]1NC(=O)[C@@H](CC(C)C)NC(=O)[C@H](CCN)NC(=O)[C@@H](NC(=O)[C@H](CCN)NC(=O)[C@@H](NC(=O)[C@H](CCN)NC(=O)[C@H](CCN)NC(=O)[C@@H]2CSSC[C@H](NC(=O)[C@@H](N)Cc3c[nH]c4ccccc34)C(=O)N[C@@H](C(C)C)C(=O)N[C@@H](C)C(=O)N[C@@H](CO)C(=O)NCC(=O)N3CCC[C@H]3C(=O)N[C@@H](CC(C)C)C(=O)N[C@@H](CO)C(=O)N[C@@H](Cc3ccc(O)cc3)C(=O)N2)[C@@H](C)O)CCNC(=O)[C@H]([C@@H](C)O)NC(=O)[C@H](CCN)NC(=O)[C@H](CCN)NC1=O [Ex. 128] (H-WCVASGPLSYC[Dab][Dab]T[Dab][Dab][Dab][dL]L[Dab][Dab]T; disulfide 2-11; lactam 16-C) | 0.25 | 0.125 | 0.5 | 0.125 | 4 | 0.125 | 0.5 | – | 1 |
| CCCC[C@@H]1NC(=O)[C@@H]2CCCN2C(=O)[C@H]2CCCN2C(=O)[C@H](CO)NC(=O)[C@H](C)NC(=O)[C@H](C(C)(C)C)NC(=O)[C@H](CCN)NC(=O)[C@H](Cc2c[nH]c3ccccc23)NC(=O)[C@@H](N)CCC(=O)NCC[C@@H](C(=O)N[C@H](CCN)C(=O)N[C@H]2CCNC(=O)[C@H]([C@@H](C)O)NC(=O)[C@H](CCN)NC(=O)[C@H](CCN)NC(=O)[C@H](CC(C)C)NC(=O)[C@@H](Cc3ccccc3)NC(=O)[C@H](CCN)NC2=O)NC(=O)[C@H](CCCN)NC(=O)[C@H](CCN)NC(=O)[C@H](Cc2ccc(O)cc2)NC(=O)[C@H](CO)NC1=O [Ex. 198] (H-EW[Dab][Tle]AS[dP]P[Nle]SY[Dab][Orn][Dab][dDab][Dab][Dab][dF]L[Dab][Dab]T; lactam 1-14, 16-C) | 1 | 0.25 | 0.5 | 0.0625 | 1 | 0.125 | 0.5 | 1 | – |
| CN[C@@H](Cc1c[nH]c2ccccc12)C(=O)N[C@H]1CSSC[C@@H](C(=O)N(C)CC(=O)N[C@@H](CCN)C(=O)N[C@H](C(=O)N[C@@H](CCN)C(=O)N[C@H]2CCNC(=O)[C@H]([C@@H](C)O)NC(=O)[C@H](CCN)NC(=O)[C@H](CCN)NC(=O)[C@H](CC(C)C)NC(=O)[C@@H](CC(C)C)NC(=O)[C@H](CCN)NC2=O)[C@@H](C)O)NC(=O)[C@H](Cc2ccc(O)cc2)NC(=O)[C@H]([C@@H](C)O)NC(=O)[C@H](C(C)C)NC(=O)[C@@H]2C[C@@H](O)CN2C(=O)[C@@H](C)NC(=O)[C@H]([C@@H](C)O)NC(=O)[C@H](C)NC(=O)[C@H](C(C)C)NC1=O [Ex. 175] (H-[NMeW]CVAT[dA][Hyp]VTYC[Sar][Dab]T[Dab][Dab][Dab][dL]L[Dab][Dab]T; disulfide 2-11; lactam 16-C) | 1 | 0.0625 | 0.5 | 0.0625 | 0.5 | 0.0625 | 0.25 | – | <1 |
